Source: ChEMBL document CHEMBL1145534 (2007)
≈ marks a conversion by molar mass, not a printed value.

Assays:
Type in all cases: functional
Streptococcus mitis [1] = assay: Antimicrobial activity against viridans group Streptococcus mitis at 1 ug/ml by broth microdilution method
Rothia mucilaginosa [2] = assay: Antimicrobial activity against Rothia mucilaginosa at 1 ug/ml by broth microdilution method
[3] = tested on: Streptococcus constellatus; assay: Antimicrobial activity against viridans group Streptococcus constellatus at 0.5 ug/ml by broth microdilution method
Enterococcus durans [4] = assay: Antimicrobial activity against Enterococcus durans by broth microdilution method
Streptococcus mutans [5] = assay: Antimicrobial activity against viridans group Streptococcus mutans at 2 ug/ml by broth microdilution method
Listeria monocytogenes = assay: Antimicrobial activity against Listeria monocytogenes by broth microdilution method
Streptococcus oralis [6] = assay: Antimicrobial activity against viridans group Streptococcus oralis at 2 ug/ml by broth microdilution method
Streptococcus mitis [7] = assay: Antimicrobial activity against viridans group Streptococcus mitis by broth microdilution method
Streptococcus anginosus = assay: Antimicrobial activity against viridans group Streptococcus anginosus at 0.25 ug/ml by broth microdilution method
Enterococcus raffinosus [8] = assay: Antimicrobial activity against Enterococcus raffinosus at 1 ug/ml by broth microdilution method
Bacillus cereus [9] = assay: Antimicrobial activity against Bacillus cereus at 0.12 ug/ml by broth microdilution method
[10] = tested on: Streptococcus constellatus; assay: Antimicrobial activity against viridans group Streptococcus constellatus at 1 ug/ml by broth microdilution method
Bacillus cereus [11] = assay: Antimicrobial activity against Bacillus cereus at 0.5 ug/ml by broth microdilution method
Bacillus cereus [12] = assay: Antimicrobial activity against Bacillus cereus at 2 ug/ml by broth microdilution method
Rothia mucilaginosa [13] = assay: Antimicrobial activity against Rothia mucilaginosa at 0.25 ug/ml by broth microdilution method
Rothia mucilaginosa [14] = assay: Antimicrobial activity against Rothia mucilaginosa at <= 0.06 ug/ml by broth microdilution method
[15] = tested on: Corynebacterium pseudodiphtheriticum; assay: Antimicrobial activity against Corynebacterium pseudodiphtheriticum at <= 0.06 ug/ml by broth microdilution method
[16] = tested on: Corynebacterium pseudodiphtheriticum; assay: Antimicrobial activity against Corynebacterium pseudodiphtheriticum at 0.12 ug/ml by broth microdilution method
[17] = tested on: Streptococcus intermedius; assay: Antimicrobial activity against viridans group Streptococcus intermedius at 0.5 ug/ml by broth microdilution method
Aerococcus [18] = assay: Antimicrobial activity against Aerococcus spp. at <= 0.06 ug/ml by broth microdilution method
Streptococcus salivarius [19] = assay: Antimicrobial activity against viridans group Streptococcus salivarius at 0.25 ug/ml by broth microdilution method
Enterococcus avium = assay: Antimicrobial activity against Enterococcus avium at 0.5 ug/ml by broth microdilution method
Micrococcus luteus [20] = assay: Antimicrobial activity against Micrococcus luteus at 0.12 ug/ml by broth microdilution method
Streptococcus oralis [21] = assay: Antimicrobial activity against viridans group Streptococcus oralis at 0.5 ug/ml by broth microdilution method
Streptococcus gordonii [22] = assay: Antimicrobial activity against viridans group Streptococcus gordonii at <= 0.06 ug/ml by broth microdilution method
[23] = tested on: Streptococcus parasanguinis; assay: Antimicrobial activity against viridans group Streptococcus parasanguis at <= 0.06 ug/ml by broth microdilution method
Enterococcus gallinarum = assay: Antimicrobial activity against Enterococcus gallinarum at 1 ug/ml by broth microdilution method
Streptococcus = assay: Antimicrobial activity against beta hemolytic Streptococci group C at <= 0.06 ug/ml by broth microdilution method
Bacillus sp. = assay: Antimicrobial activity against Bacillus spp. by broth microdilution method; conditions: Bacillus sp. (in: firmicutes)
Streptococcus sanguinis [24] = assay: Antimicrobial activity against viridans group Streptococcus sanguinis at 1 ug/ml by broth microdilution method
Enterococcus hirae = assay: Antimicrobial activity against Enterococcus hirae by broth microdilution method
Micrococcus luteus [25] = assay: Antimicrobial activity against Micrococcus luteus at 0.5 ug/ml by broth microdilution method
[26] = tested on: Enterococcus casseliflavus; assay: Antimicrobial activity against Enterococcus casseliflavus at 1 ug/ml by broth microdilution method
Streptococcus mitis [27] = assay: Antimicrobial activity against viridans group Streptococcus mitis at 0.5 ug/ml by broth microdilution method
Streptococcus gordonii [28] = assay: Antimicrobial activity against viridans group Streptococcus gordonii at 0.5 ug/ml by broth microdilution method
Streptococcus equinus [29] = assay: Antimicrobial activity against viridans group Streptococcus bovis at 2 ug/ml by broth microdilution method
Aerococcus [30] = assay: Antimicrobial activity against Aerococcus spp. at 1 ug/ml by broth microdilution method
Streptococcus sanguinis [31] = assay: Antimicrobial activity against viridans group Streptococcus sanguinis at 0.25 ug/ml by broth microdilution method
Enterococcus durans [32] = assay: Antimicrobial activity against Enterococcus durans at 0.5 ug/ml by broth microdilution method
[33] = tested on: Enterococcus casseliflavus; assay: Antimicrobial activity against Enterococcus casseliflavus at 0.12 ug/ml by broth microdilution method
Streptococcus mutans [34] = assay: Antimicrobial activity against viridans group Streptococcus mutans at 0.25 ug/ml by broth microdilution method
[35] = tested on: Streptococcus intermedius; assay: Antimicrobial activity against viridans group Streptococcus intermedius by broth microdilution method
[36] = tested on: Streptococcus intermedius; assay: Antimicrobial activity against viridans group Streptococcus intermedius at 0.12 ug/ml by broth microdilution method
Streptococcus oralis [37] = assay: Antimicrobial activity against viridans group Streptococcus oralis at 0.25 ug/ml by broth microdilution method
Aerococcus [38] = assay: Antimicrobial activity against Aerococcus spp. at 0.25 ug/ml by broth microdilution method
Enterococcus raffinosus [39] = assay: Antimicrobial activity against Enterococcus raffinosus at 0.5 ug/ml by broth microdilution method
[40] = tested on: Streptococcus vestibularis; assay: Antimicrobial activity against viridans group Streptococcus vestibularis at 0.25 ug/ml by broth microdilution method
Streptococcus sanguinis [41] = assay: Antimicrobial activity against viridans group Streptococcus sanguinis at 0.5 ug/ml by broth microdilution method
Streptococcus salivarius [42] = assay: Antimicrobial activity against viridans group Streptococcus salivarius at 0.12 ug/ml by broth microdilution method
Corynebacterium sp. [43] = assay: Antimicrobial activity against Corynebacterium spp. at 0.25 ug/ml by broth microdilution method
Corynebacterium sp. [44] = assay: Antimicrobial activity against Corynebacterium spp. at 0.5 ug/ml by broth microdilution method
Streptococcus equinus [45] = assay: Antimicrobial activity against viridans group Streptococcus bovis by broth microdilution method
[46] = tested on: Streptococcus intermedius; assay: Antimicrobial activity against viridans group Streptococcus intermedius at 0.25 ug/ml by broth microdilution method
Corynebacterium jeikeium = assay: Antimicrobial activity against Corynebacterium jeikeium by broth microdilution method
Streptococcus mitis [47] = assay: Antimicrobial activity against viridans group Streptococcus mitis at 2 ug/ml by broth microdilution method

Compound `CC(=O)NC[C@H]1CN(c2ccc(N3CCOCC3)c(F)c2)C(=O)O1` [LINEZOLID] has an inhibition at 1 µg/mL (Streptococcus mitis [1]) of 99.1%, an inhibition at 1 µg/mL (Rothia mucilaginosa [2]) of 94.4% and an inhibition at 0.5 µg/mL [3] of 42.7%. For the same compound, the MIC50 (Enterococcus durans [4]) was 2 µg/mL (≈ 5.93 µM), the MIC90 (Enterococcus durans [4]) was 2 µg/mL (≈ 5.93 µM) and the inhibition at 2 µg/mL (Streptococcus mutans [5]) was 100%. For the same compound, the MIC50 (Listeria monocytogenes) was 2 µg/mL (≈ 5.93 µM), the MIC90 (Listeria monocytogenes) was 2 µg/mL (≈ 5.93 µM) and the inhibition at 2 µg/mL (Streptococcus oralis [6]) was 99.3%. It also gave an MIC50 (Streptococcus mitis [7]) of 1 µg/mL (≈ 2.96 µM), an MIC90 (Streptococcus mitis [7]) of 1 µg/mL (≈ 2.96 µM) and an inhibition at 0.25 µg/mL (Streptococcus anginosus) of 7.7%. It also gave an inhibition at 1 µg/mL (Enterococcus raffinosus [8]) of 46.2%, an inhibition at 0.12 µg/mL (Bacillus cereus [9]) of 1.7% and an inhibition at 1 µg/mL [10] of 98.9%. It also gave an inhibition at 0.5 µg/mL (Bacillus cereus [11]) of 30%, an inhibition at 2 µg/mL (Bacillus cereus [12]) of 100% and an inhibition at 0.25 µg/mL (Rothia mucilaginosa [13]) of 16.7%. It also gave an Inhibition (Rothia mucilaginosa [14]) of 0%, an Inhibition [15] of 0% and an inhibition at 0.12 µg/mL [16] of 0%. For the same compound, the inhibition at 0.5 µg/mL [17] was 24.2%, the Inhibition (Aerococcus [18]) was 0% and the inhibition at 0.25 µg/mL (Streptococcus salivarius [19]) was 3.3%. For the same compound, the inhibition at 0.5 µg/mL (Enterococcus avium) was 4.3%, the inhibition at 0.12 µg/mL (Micrococcus luteus [20]) was 0% and the inhibition at 0.5 µg/mL (Streptococcus oralis [21]) was 34.5%. The Inhibition (Streptococcus gordonii [22]) was 0%, the Inhibition [23] was 0% and the inhibition at 1 µg/mL (Enterococcus gallinarum) was 30.3%. For the same compound, the Inhibition (Streptococcus) was 0%, the MIC50 (Bacillus sp.) was 1 µg/mL (≈ 2.96 µM) and the MIC90 (Bacillus sp.) was 1 µg/mL (≈ 2.96 µM). It also gave an inhibition at 1 µg/mL (Streptococcus sanguinis [24]) of 97.9%, an MIC50 (Enterococcus hirae) of 2 µg/mL (≈ 5.93 µM) and an MIC90 (Enterococcus hirae) of 2 µg/mL (≈ 5.93 µM). The inhibition at 0.5 µg/mL (Micrococcus luteus [25]) was 75.9%, the inhibition at 1 µg/mL [26] was 23.1% and the inhibition at 0.5 µg/mL (Streptococcus mitis [27]) was 33.4%. For the same compound, the inhibition at 0.5 µg/mL (Streptococcus gordonii [28]) was 33.3%, the inhibition at 2 µg/mL (Streptococcus equinus [29]) was 100% and the inhibition at 1 µg/mL (Aerococcus [30]) was 63.6%. It also gave an inhibition at 0.25 µg/mL (Streptococcus sanguinis [31]) of 4.2%, an inhibition at 0.5 µg/mL (Enterococcus durans [32]) of 8.2% and an inhibition at 0.12 µg/mL [33] of 0%. For the same compound, the inhibition at 0.25 µg/mL (Streptococcus mutans [34]) was 0%, the MIC50 [35] was 1 µg/mL (≈ 2.96 µM) and the MIC90 [35] was 2 µg/mL (≈ 5.93 µM). For the same compound, the inhibition at 0.12 µg/mL [36] was 0%, the inhibition at 0.25 µg/mL (Streptococcus oralis [37]) was 3.6% and the inhibition at 0.25 µg/mL (Aerococcus [38]) was 4.5%. It also gave an inhibition at 0.5 µg/mL (Enterococcus raffinosus [39]) of 0%, an inhibition at 0.25 µg/mL [40] of 0% and an inhibition at 0.5 µg/mL (Streptococcus sanguinis [41]) of 36.6%. The inhibition at 0.12 µg/mL (Streptococcus salivarius [42]) was 1.1%, the inhibition at 0.25 µg/mL (Corynebacterium sp. [43]) was 68.2% and the inhibition at 0.5 µg/mL (Corynebacterium sp. [44]) was 92.4%. It also gave an MIC50 (Streptococcus equinus [45]) of 1 µg/mL (≈ 2.96 µM), an MIC90 (Streptococcus equinus [45]) of 2 µg/mL (≈ 5.93 µM) and an inhibition at 0.25 µg/mL [46] of 0%. It also gave an MIC50 (Corynebacterium jeikeium) of 0.25 µg/mL (≈ 0.741 µM), an MIC90 (Corynebacterium jeikeium) of 0.5 µg/mL (≈ 1.48 µM) and an inhibition at 2 µg/mL (Streptococcus mitis [47]) of 100%.
